Results from PubChem BioAssay AID1959 (Broad Institute, 2009).
The source made the active and inactive calls.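 Rule for the calls: active = growth-inhibition EC50 no more than tenfold above the top tested dose; inconclusive = flat fit between 30% and 70% inhibition, or unreliable fit; inactive = EC50 more than tenfold above the top tested dose.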

System: E. coli NEB5alpha growth, BacTiter-Glo luminescence, 4 h
Test: Escherichia coli growth inhibition, dose response, counter-screen for MEX-5/POS-1 RNA-binding inhibitor project, luminescence, NEB5alpha (AID 1959);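 note: pUC19-transformed ampicillin-resistant cells grown in LB with ampicillin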

O=[N+]([O-])c1cc(-c2ccc([As](=O)(O)O)cc2)ccc1[As](=O)(O)O
EC50: > 11 µM (inactive)

CC1N(C)c2cccc3cccc(c23)N1C
EC50: > 11 µM (inactive)

CC(C)CNC(=O)C1Nc2ccc(C(F)(F)F)cc2C2C=CCC12 (centres undefined)
EC50: > 11 µM (inactive)

Oc1ccc(-c2nc(-c3ccc(O)c(O)c3)cs2)cc1
EC50: > 11 µM (inactive)

CC(C)(C)OC(=O)NCCCCC1=CC2=CC(=O)C(C)(OC(=O)c3ccco3)C(=O)C2=CO1 (centres undefined)
EC50: > 11 µM (inactive)

Oc1ccc(/C=N/N2CCCCC2)c(O)c1O
EC50: > 11 µM (inactive)

N#Cc1ccccc1CN1C(=O)S/C(=C/c2cccn2-c2cccc(C(=O)O)c2)C1=O
EC50: > 11 µM (inactive)

CCCCOc1c(Br)cc(/C=N/O)cc1OCC
EC50: > 11 µM (inactive)

CC(C)Cc1nnc(NC(=O)CCC(=O)N2CC(C)CC(C)C2)s1 (centres undefined)
EC50: > 11 µM (inactive)

Cc1ccccc1C1=N/C(=C/c2cccs2)C(=O)O1
EC50: > 11 µM (inactive)

COc1cc(C(CC(=O)N2CCCC2)c2c(OC)cc(OC)c3ccc(=O)oc23)cc(OC)c1OC (centres undefined)
EC50: > 11 µM (inactive)

CN1CCc2c(sc(NC(=O)c3ccc4ccccc4c3)c2C(N)=O)C1
EC50: > 11 µM (inactive)

COc1cc(/C=N/Nc2nc(=O)[nH]nc2C)cc([N+](=O)[O-])c1O
EC50: > 11 µM (inactive)

CC(C)N1CCc2c(sc(NC(=O)c3ccc4ccccc4c3)c2C(N)=O)C1
EC50: > 11 µM (inactive)

CSc1nc(=S)c2[nH]c(=S)[nH]c2[nH]1
EC50: > 11 µM (inactive)

O=C(N/N=C\C1C(=O)NC(=S)N(c2ccccc2)C1=O)c1ccc(O)cc1 (centres undefined)
EC50: > 11 µM (inactive)

Cc1cc2oc(=O)c(CC(=O)NCCCO)c(C)c2c2occ(C(C)(C)C)c12
EC50: > 11 µM (inactive)

CN1C(=O)/C(=C/C=C/c2ccco2)C(=O)NC1=S
EC50: > 11 µM (inactive)

O=c1[nH]c(=O)n(-c2ccc(F)cc2)c(O)c1/C=C1\C=Nc2ccccc21
EC50: > 11 µM (inactive)

CCO/C(C)=N/n1c2nc3ccccc3nc2c2c(=O)n(C3CCCC3)c(C)nc21
EC50: > 11 µM (inactive)

O=C(NNc1ccccc1)C(=O)NNS(=O)(=O)c1ccc([N+](=O)[O-])cc1
EC50: > 11 µM (inactive)

C=CCN1C(=O)/C(=C2/Sc3ccccc3N2CC)SC1=S
EC50: > 11 µM (inactive)

CCNC(=O)c1cc2c(=O)n3cccc(C)c3nc2n(CCc2ccccc2)c1=N
EC50: > 11 µM (inactive)

Cc1ccc(NC(=O)Cn2c(=O)c(C)nc3ccccc32)cc1
EC50: > 11 µM (inactive)

CCc1ccc(/C=C2/SC(=S)N(CCC(=O)Nc3cccnc3)C2=O)cc1
EC50: > 11 µM (inactive)

COCCN1CCC(CNCc2cn[nH]c2-c2ccc(C)c(C)c2)C1 (centres undefined)
EC50: > 11 µM (inactive)

O=C(Nc1cc(=O)[nH]c2ncnn12)c1ccc(Cl)cc1Cl
EC50: > 11 µM (inactive)

O=C(N/N=C/c1c(O)n(Cc2ccc(F)cc2)c(=O)[nH]c1=O)c1ccccc1O
EC50: > 11 µM (inactive)

COC(=O)CCC(=O)OC1(C)C(=O)C=C2C=C(C3CC3)N(c3ccc(CO)cc3)C=C2C1=O (centres undefined)
EC50: > 11 µM (inactive)

Cc1cc2c3c(c1)C(C)CC(C)(C)N3C(=O)C2=O (centres undefined)
EC50: > 11 µM (inactive)

COc1cc([C@H](Cc2ccccc2)NC(C)=O)oc(=O)c1
EC50: > 11 µM (inactive)

COc1cc2c(cc1OC)C(c1ccc(-c3ccc(Cl)c(Cl)c3)o1)=NCC2
EC50: > 11 µM (inactive)

CCOC(=O)c1c2ccc(OCC(=O)N/N=C/c3ccc(Cl)cc3)cc2n2ccccc12
EC50: > 11 µM (inactive)

Cc1ccc(/C=C2/Sc3ccc(C(=O)N4CCC5(CC4)OCCO5)cc3NC2=O)cc1
EC50: > 11 µM (inactive)

CCN(CC)c1nc(-c2nn[nH]n2)nc(N(CC)CC)n1
EC50: > 11 µM (inactive)

COc1ccc(C2CC(=O)C(C=NCCCO)=C(O)C2)cc1 (centres undefined)
EC50: > 11 µM (inactive)

COc1ccc(OC)c(C2C(C(=O)c3ccco3)=C(O)C(=O)N2CCN2CCOCC2)c1 (centres undefined)
EC50: > 11 µM (inactive)

CC1=NN(C(N)=S)C(=O)C1N=Nc1c(Cl)cc([N+](=O)[O-])cc1Cl (centres undefined)
EC50: > 11 µM (inactive)

COc1ccc(NS(=O)(=O)c2ccc3c(c2)[C@H]2C=CC[C@H]2[C@@H](c2ccc(C(=O)O)cc2)N3)cc1
EC50: > 11 µM (inactive)

O=C(O)C1Nc2c(O)cc(Cl)c([N+](=O)[O-])c2C2C=CCC12 (centres undefined)
EC50: > 11 µM (inactive)

CCOc1ccccc1-n1c(O)c(C=Nc2ccc(N(CC)CC)cc2)c(=O)[nH]c1=O
EC50: > 11 µM (inactive)

NS(=O)(=O)c1cc(C(=O)NC2CCSc3ccccc32)ccc1Cl (centres undefined)
EC50: > 11 µM (inactive)

CC(=NCc1ccc2c(c1)OCO2)c1c(O)n(-c2ccccc2)c(=O)[nH]c1=O
EC50: > 11 µM (inactive)

Cc1ccc(S(=O)(=O)c2cc3c(=O)n4ccccc4nc3n(CCc3ccccc3)c2=N)cc1
EC50: > 11 µM (inactive)

N#CC(C#N)=Cc1ccc(-c2ccc(S(=O)(=O)N=C(N)N)cc2)o1
EC50: > 11 µM (inactive)

O=C1C=C(O)c2c(O)cc(O)c(O)c2C1=O
EC50: > 11 µM (inactive)

Cc1ccc(-c2ccc(CCC(=O)O)n2-c2cccc(C(=O)O)c2)cc1
EC50: > 11 µM (inactive)

COc1ccc2c(c1)S/C(=C\C(=O)c1ccncc1)N2C
EC50: > 11 µM (inactive)

COc1cc(O)c(C(=O)O)c(-c2cc(O)c(O)cc2C)c1
EC50: > 11 µM (inactive)

C=CCn1c(O)c(/C=C/C=Nc2ccccc2)c(=O)[nH]c1=O
EC50: > 11 µM (inactive)

COCCn1c(N)c(NCc2ccccc2)c(=O)[nH]c1=O
EC50: > 11 µM (inactive)

O=C1NC(=O)C(=Cc2cn(CCOc3ccc4c(c3)OCO4)c3ccccc23)C(=O)N1
EC50: > 11 µM (inactive)

COc1ccc(CCn2c(O)c(C=Nc3ccc(NC(C)=O)cc3)c(=O)[nH]c2=O)cc1OC
EC50: > 11 µM (inactive)

CCCCCCn1c(O)c(C=Nc2ccccc2N2CCOCC2)c(=O)[nH]c1=S
EC50: > 11 µM (inactive)

O=C(O)c1ccccc1NS(=O)(=O)c1ccc(NNC(=S)Nc2ccc(OC(F)F)cc2)c([N+](=O)[O-])c1
EC50: > 11 µM (inactive)

Cc1ccc(CN(C)C(=O)CC2C(=O)NCCN2CC2CCCCC2)cc1 (centres undefined)
EC50: > 11 µM (inactive)

CCN(CC)c1ccc(/C=N/NC(=O)c2ccco2)c(O)c1
EC50: > 11 µM (inactive)

Cc1nn(C)c(C)c1CN(C)C(=O)C1c2ccccc2Oc2ccccc21
EC50: > 11 µM (inactive)

COc1cc(/C=C2/C(=O)ON=C2C)ccc1OCc1ccccc1F
EC50: > 11 µM (inactive)

COC(=O)Cn1cc(/C=C2\C(=O)NC(=O)N(c3ccccc3)C2=O)c2ccccc21
EC50: > 11 µM (inactive)

Cc1n[nH]c(C)c1Sc1ccccc1N=Cc1cc(Cl)cc([N+](=O)[O-])c1O
EC50: > 11 µM (inactive)

O=C(NCCCN1CCOCC1)C1Nc2ccc(OC(F)(F)F)cc2C2C=CCC12 (centres undefined)
EC50: > 11 µM (inactive)

COc1ccccc1C1C(C(C)=O)=C(C)N=c2s/c(=C\c3cc(OC)c(OC)c(OC)c3)c(=O)n21 (centres undefined)
EC50: > 11 µM (inactive)

COc1ncnc2c1NC1=C(S2)C(=NCCC(=O)O)CC(C)(C)C1
EC50: > 11 µM (inactive)

O=C1c2cccc3c(O)ccc(c23)C(=O)N1Cc1ccccc1
EC50: > 11 µM (inactive)

NC(=O)c1ccsc1N
EC50: > 11 µM (inactive)

COC(=O)c1ccc(-n2c(CCC(=O)O)ccc2-c2ccccc2)cc1
EC50: > 11 µM (inactive)

CCN1C/C(=C/c2cccs2)c2nc3ccccc3c(C(=O)O)c2C1
EC50: > 11 µM (inactive)

O=C(Nc1nccs1)c1ccc(-c2ccc([N+](=O)[O-])cc2)o1
EC50: > 11 µM (inactive)

COc1cc(NC(=O)CSc2nnc3ccc(-c4ccncc4)nn23)cc(OC)c1
EC50: > 11 µM (inactive)

COC(=O)c1ccc(-n2c(C)cc(C(=O)COC(=O)CC3Sc4ccccc4NC3=O)c2C)cc1 (centres undefined)
EC50: > 11 µM (inactive)

Cc1ccn2cc(-c3ccc(O)c(O)c3)nc2c1
EC50: > 11 µM (inactive)

CC(C)C1Nc2ccc(S(N)(=O)=O)cc2C2C=CCC21 (centres undefined)
EC50: > 11 µM (inactive)

COc1ccc(CCn2c(=N)c(C(=O)NC3CCCCC3)cc3c(=O)n4ccccc4nc32)cc1
EC50: > 11 µM (inactive)

CCCCNC(=O)c1cc2c(=O)n3cccc(C)c3nc2n(Cc2ccncc2)c1=N
EC50: > 11 µM (inactive)

O=C(O)CSc1cc(NS(=O)(=O)c2ccc(Br)cc2)c2ccccc2c1O
EC50: > 11 µM (inactive)

CC(=O)N(C)c1ccc(N=Nc2c(C)[nH]n(C(N)=S)c2=O)cc1
EC50: > 11 µM (inactive)

CCOC(=O)c1c(NC(=O)CC2Nc3ccccc3NC2=O)sc(C)c1C (centres undefined)
EC50: > 11 µM (inactive)

COc1cccc(C2C(C(=O)c3cc4cccc(OC)c4o3)=C(O)C(=O)N2c2cc(C)on2)c1OC (centres undefined)
EC50: > 11 µM (inactive)

CCCCOC(=O)Cn1c2ccc(OC)cc2c2nc3ccccc3nc21
EC50: > 11 µM (inactive)

CC(=O)c1ccc2c(c1)C1C=CCC1C(c1cc3c(cc1Br)OCO3)N2 (centres undefined)
EC50: > 11 µM (inactive)

CCN(CC)S(=O)(=O)c1ccc(N=Cc2c(C)c(C#N)c(=O)n(C)c2O)cc1
EC50: > 11 µM (inactive)

O=C1c2cccc3c(N4CCCCC4)ccc(c23)C(=O)N1CCO
EC50: > 11 µM (inactive)

O=C(O)CCC(=O)NNc1nc(-c2ccccc2)c2cc(Cl)ccc2n1
EC50: > 11 µM (inactive)

O=c1oc2ccc(Cl)cc2nc1/C=C(\O)c1cccs1
EC50: > 11 µM (inactive)

COc1ccc(CNC(=O)COC(=O)c2cc(-c3ccc(Cl)s3)nc3ccccc23)cc1
EC50: > 11 µM (inactive)

COC(=O)CCCC1=CC2=CC(=O)C(C)(OC(=O)c3cnc4ccccc4n3)C(=O)C2=CO1 (centres undefined)
EC50: > 11 µM (inactive)

COC(=O)C1=NN(C(=O)c2ccc(C)cc2)C(O)(c2ccc(Cl)cc2)C1 (centres undefined)
EC50: > 11 µM (inactive)

CCCCn1c(O)c(C(=O)/C=C/c2ccc3c(c2)OCO3)c(=O)[nH]c1=O
EC50: > 11 µM (inactive)

COC(=O)c1sccc1NC(=O)c1ccc(C)s1
EC50: > 11 µM (inactive)

CCOC(=O)c1ccc(-n2c(CCC(=O)O)ccc2-c2ccc(F)cc2)cc1
EC50: > 11 µM (inactive)

Cc1cc(C=C2C(=O)N(C)C(=S)N(C)C2=O)c(C)n1C1CCCC1
EC50: > 11 µM (inactive)

Cc1sc(/C=C2\C(=O)ON=C2c2ccccc2)cc1Br
EC50: > 11 µM (inactive)

CN(C)CCN(C)Cc1c2ccccc2c(CN(C)CCN(C)C)c2ccccc12
EC50: > 11 µM (inactive)
